Measurements as given in ChEMBL document CHEMBL4038316, “Enantioselective Synthesis and in Vivo Evaluation of Regioisomeric Analogues of the Antimalarial Arterolane” (J Med Chem, 2017).
Values after ≈ are worked out from the molar mass of the structure shown.

How the values were obtained:
Plasmodium falciparum [1] = assay: Antiplasmodial activity against chloroquine-resistant Plasmodium falciparum W2 infected in human RBC after 48 hrs by YOYO-1 staining-based flow cytometry method; assay type: functional; settings: W2, 48 h
Plasmodium berghei [2] = assay: Antiplasmodial activity against Plasmodium berghei infected in Swiss Webster mouse assessed as cure rate at 4 mg/kg/day administered for 4 days via oral gavage starting at 1 hr post infection measured after 30 days relative to control; assay type: functional
Liver [3] = assay: (§1) Half life in mouse liver microsomes; assay type: ADME, microsome; settings: microsomes
Liver [4] = assay: (§2) Half life in mouse liver microsomes in absence of NADPH; assay type: ADME, microsome; settings: microsomes
Plasmodium berghei [5] = assay: Antiplasmodial activity against Plasmodium berghei infected in Swiss Webster mouse assessed as cure rate at 6 mg/kg/day administered for 4 days via oral gavage starting at 1 hr post infection measured after 30 days relative to control; assay type: functional
Liver [6] = settings: mouse, microsomes
Description: (§3) Intrinsic clearance in mouse liver microsomes assessed per mg of protein

Liver [7] = assay: Metabolic stability in mouse liver microsomes in absence of NADPH; assay type: ADME, microsome
in vitro = settings: mouse, liver microsomes
Description: as §3

[8] = as §1; assay type: ADME, microsome; settings: liver microsomes
Plasmodium berghei [9] = assay: Antiplasmodial activity against Plasmodium berghei infected in Swiss Webster mouse assessed as cure rate at 13.6 mg/kg/day administered for 4 days via oral gavage starting at 1 hr post infection measured after 30 days relative to control; assay type: functional
physchem = settings: PBS, pH 7.4
Description: (§4) Kinetic solubility of the compound in PBS at pH 7.4

Plasmodium berghei [10] = assay: Antiplasmodial activity against Plasmodium berghei infected in Swiss Webster mouse assessed as cure rate at 9.5 mg/kg/day administered for 4 days via oral gavage starting at 1 hr post infection measured after 30 days relative to control; assay type: functional
Plasmodium berghei [11] = assay: Antiplasmodial activity against Plasmodium berghei infected in Swiss Webster mouse assessed as cure rate at 1 mg/kg/day administered for 4 days via oral gavage starting at 1 hr post infection measured after 30 days relative to control; assay type: functional
Plasmodium berghei [12] = assay: Antiplasmodial activity against Plasmodium berghei infected in Swiss Webster mouse assessed as increase in cure rate administered for 4 days via oral gavage starting at 1 hr post infection measured after 30 days; assay type: functional; settings: for ED50: Plasmodium berghei, po, read-out: PD50
Plasmodium berghei [13] = assay: Antiplasmodial activity against Plasmodium berghei infected in Swiss Webster mouse assessed as cure rate at 10 mg/kg/day administered for 4 days via oral gavage starting at 1 hr post infection measured after 30 days relative to control; assay type: functional
Plasmodium berghei [14] = assay: Antiplasmodial activity against Plasmodium berghei infected in Swiss Webster mouse assessed as cure rate at 40 mg/kg/day administered for 2 days via oral gavage starting at 1 hr post infection measured after 30 days relative to control; assay type: functional
Plasmodium berghei [15] = assay: Antiplasmodial activity against Plasmodium berghei infected in Swiss Webster mouse assessed as cure rate at 4 mg/kg/day administered for 2 days via oral gavage starting at 1 hr post infection measured after 30 days relative to control; assay type: functional
Plasmodium berghei [16] = assay: Antiplasmodial activity against Plasmodium berghei infected in Swiss Webster mouse assessed as cure rate at 4 mg/kg/day administered for 1 day via oral gavage starting at 1 hr post infection measured after 30 days relative to control; assay type: functional
Plasmodium berghei [17] = assay: Antiplasmodial activity against Plasmodium berghei infected in Swiss Webster mouse assessed as cure rate at 80 mg/kg/day administered for 1 day via oral gavage starting at 1 hr post infection measured after 30 days relative to control; assay type: functional
[18] = as §2; assay type: ADME, microsome; settings: liver microsomes
Plasmodium berghei [19] = assay: Antiplasmodial activity against Plasmodium berghei infected in Swiss Webster mouse assessed as cure rate at 0.5 mg/kg/day administered for 4 days via oral gavage starting at 1 hr post infection measured after 30 days relative to control; assay type: functional
Plasmodium berghei [20] = assay: Antiplasmodial activity against Plasmodium berghei infected in Swiss Webster mouse assessed as cure rate at 2 mg/kg/day administered for 4 days via oral gavage starting at 1 hr post infection measured after 30 days relative to control; assay type: functional
Plasmodium berghei [21] = assay: Antiplasmodial activity against Plasmodium berghei infected in Swiss Webster mouse assessed as cure rate at 4 mg/kg/day administered for 3 days via oral gavage starting at 1 hr post infection measured after 30 days relative to control; assay type: functional
Plasmodium berghei [22] = assay: Antiplasmodial activity against Plasmodium berghei infected in Swiss Webster mouse assessed as cure rate at 40 mg/kg/day administered for 1 day via oral gavage starting at 1 hr post infection measured after 30 days relative to control; assay type: functional
Plasmodium falciparum [23] = assay: Antiplasmodial activity against Plasmodium falciparum Cam3.2_rev infected in human RBC assessed as time required to reduce early ring stage parasite viability by 50% by SYTO 61-staining-based flow cytometry; assay type: functional
Plasmodium falciparum [24] = assay: Antiplasmodial activity against Plasmodium falciparum Cam3.2 infected in human RBC assessed as time required to reduce early ring stage parasite viability by 50% by SYTO 61-staining-based flow cytometry; assay type: functional
[25] = buffer, pH 7.4
Description: as §4

SMILES | EC50 (Plasmodium falciparum [1]) | Activity (Plasmodium berghei [2]) | Activity (Plasmodium berghei [5]) | Stability (Liver [7]) | also measured
O=C(C[C@H]1CC[C@]2(CC1)OO[C@]1(O2)C2CC3CC(C2)CC1C3)N1CCNCC1 | 1.9 nM | 100% | 100% | – | t1/2 (Liver [3]): 0.802 h; t1/2 (Liver [4]): 1.48 h; CLH (Liver [6]): 14.4 µL/min
NCCNC(=O)C[C@H]1CC[C@]2(CC1)OO[C@]1(O2)C2CC3CC(C2)CC1C3 | 3.6 nM | 0% | 20% | – | t1/2 (Liver [3]): 1.07 h; t1/2 (Liver [4]): 1.17 h; CLH (Liver [6]): 10.8 µL/min
CC(C)(CN)CNC(=O)C[C@H]1CC[C@]2(CC1)OO[C@]1(O2)C2CC3CC(C2)CC1C3 | 2.6 nM | 40% | 100% | Stable | t1/2 (Liver [3]): 2.68 h; CLH (Liver [6]): 4.3 µL/min
N[C@H]1CC[C@H](NC(=O)C[C@H]2CC[C@]3(CC2)OO[C@]2(O3)C3CC4CC(C3)CC2C4)CC1 | 4.5 nM | 80% | 80% | – | –
NC1CCN(C(=O)C[C@H]2CC[C@]3(CC2)OO[C@]2(O3)C3CC4CC(C3)CC2C4)CC1 | 1.3 nM | 100% | 100% | Stable | t1/2 (Liver [3]): 4.62 h; CLH (Liver [6]): 2.5 µL/min
NC(=O)CNC(=O)C[C@@H]1CCC[C@]2(C1)OOC1(O2)C2CC3CC(C2)CC1C3 (stereo not given in full) | 10.6 nM | – | – | Stable | microsomal CLint (in vitro): 18.6 µL/min/mg; half-life [8]: 0.622 h
CN1CCN(C(=O)C[C@@H]2CCC[C@]3(C2)OOC2(O3)C3CC4CC(C3)CC2C4)CC1 (stereo not given in full) | 4.4 nM | 0% | 0% | – | –
CC(C)(N)CNC(=O)C[C@H]1CC[C@]2(CC1)OOC1(O2)C2CC3CC(C2)CC1C3.Cc1ccc(S(=O)(=O)O)cc1 (stereo not given in full) | – | – | – | – | Activity (Plasmodium berghei [9]): 100%
CC(C)(CN)CNC(=O)C[C@@H]1CCC[C@]2(C1)OOC1(O2)C2CC3CC(C2)CC1C3 (stereo not given in full) | 4.1 nM | 0% | 0% | Stable | microsomal CLint (in vitro): 10.8 µL/min/mg; half-life [8]: 1.07 h
CN1CCN(C(=O)C[C@H]2CC[C@]3(CC2)OO[C@]2(O3)C3CC4CC(C3)CC2C4)CC1 | 4.9 nM | 0% | 0% | – | –
O=C(C[C@@H]1CCC[C@]2(C1)OOC1(O2)C2CC3CC(C2)CC1C3)N1CCNCC1 (stereo not given in full) | 2.9 nM | 0% | 20% | Stable | microsomal CLint (in vitro): 27.2 µL/min/mg; half-life [8]: 0.425 h
CC(C)(N)CNC(=O)C[C@@H]1CCC[C@]2(C1)OOC1(O2)C2CC3CC(C2)CC1C3.Cc1ccc(S(=O)(=O)O)cc1 (stereo not given in full) | – | – | – | – | Activity (Plasmodium berghei [9]): 100%
CC(C)(N)CNC(=O)C[C@@H]1CCC[C@]2(C1)OOC1(O2)C2CC3CC(C2)CC1C3 (stereo not given in full) | 3 nM | – | 60% | Stable | solubility kinetic (physchem): 429 µM (≈ 168 µg/mL); Activity (Plasmodium berghei [10]): 100%; Activity (Plasmodium berghei [11]): 0%; PD100 (Plasmodium berghei [12]): 10 mg/kg/day; ED50 (Plasmodium berghei [12]): 6 mg/kg/day; microsomal CLint (in vitro): 4.1 µL/min/mg; half-life [8]: 2.82 h; Activity (Plasmodium berghei [13]): 100%
O=C(C[C@@H]1CCC[C@]2(C1)OOC1(O2)C2CC3CC(C2)CC1C3)N1CCOCC1 (stereo not given in full) | 6.8 nM | 0% | 0% | – | –
O=C(C[C@@H]1CCC[C@]2(C1)OOC1(O2)C2CC3CC(C2)CC1C3)N1CCCCC1 (stereo not given in full) | 31.4 nM | – | – | – | –
NC1CCN(C(=O)C[C@@H]2CCC[C@]3(C2)OOC2(O3)C3CC4CC(C3)CC2C4)CC1 (stereo not given in full) | 3.9 nM | – | – | Stable | PD100 (Plasmodium berghei [12]): 4 mg/kg/day; microsomal CLint (in vitro): 8.2 µL/min/mg; half-life [8]: 1.41 h
NCCNC(=O)C[C@@H]1CCC[C@]2(C1)OOC1(O2)C2CC3CC(C2)CC1C3 (stereo not given in full) | 5.4 nM | – | 100% | – | Activity (Plasmodium berghei [14]): 100%; Activity (Plasmodium berghei [11]): 0%; Activity (Plasmodium berghei [15]): 0%; Activity (Plasmodium berghei [16]): 0%; microsomal CLint (in vitro): 8.2 µL/min/mg; half-life [8]: 1.41 h; Activity (Plasmodium berghei [17]): 20%; half-life [18]: 2.27 h; Activity (Plasmodium berghei [19]): 0%; Activity (Plasmodium berghei [20]): 0%; Activity (Plasmodium berghei [21]): 20%; Activity (Plasmodium berghei [22]): 0%
N[C@H]1CC[C@H](NC(=O)C[C@@H]2CCC[C@]3(C2)OOC2(O3)C3CC4CC(C3)CC2C4)CC1 (stereo not given in full) | 5.9 nM | 60% | 100% | – | –
NC(=O)CNC(=O)C[C@H]1CC[C@]2(CC1)OO[C@]1(O2)C2CC3CC(C2)CC1C3 | 9.2 nM | 0% | 0% | Stable | t1/2 (Liver [3]): 2.07 h; CLH (Liver [6]): 5.6 µL/min
O=C(C[C@H]1CC[C@]2(CC1)OO[C@]1(O2)C2CC3CC(C2)CC1C3)N1CCCCC1 | 57 nM | 0% | 0% | – | –
O=C(C[C@H]1CC[C@]2(CC1)OO[C@]1(O2)C2CC3CC(C2)CC1C3)N1CCOCC1 | 20.7 nM | 0% | 0% | – | –
c1cc([C@H]2CC[C@]3(CC2)OO[C@]2(O3)C3CC4CC(C3)CC2C4)ccc1OCCN1CCOCC1 [ARTEFENOMEL] | – | – | – | – | Time (Plasmodium falciparum [23]): 2 h; Time (Plasmodium falciparum [24]): 5 h
C[C@H]1[C@@H](O)O[C@@H]2O[C@@]3(C)CC[C@H]4[C@H](C)CC[C@@H]1[C@@]24OO3 [ARTENIMOL] | – | – | – | – | Time (Plasmodium falciparum [23]): 1 h; Time (Plasmodium falciparum [24]): 3 h
O=C(O)Cc1ccccc1Nc1c(Cl)cccc1Cl [DICLOFENAC] | – | – | – | – | CLH (Liver [6]): 12.5 µL/min
Cc1ncc2n1-c1ccc(Cl)cc1C(c1ccccc1F)=NC2 [MIDAZOLAM] | – | – | – | – | t1/2 (Liver [3]): 0.0275 h; CLH (Liver [6]): 420 µL/min
CC(C)(N)CNC(=O)C[C@H]1CC[C@]2(CC1)OO[C@]1(O2)C2CC3CC(C2)CC1C3 [OZ277] | 2.5 nM | 20 - 80% | 80 - 100% | Stable | Time (Plasmodium falciparum [23]): 1 h; Activity (Plasmodium berghei [11]): 0%; PD100 (Plasmodium berghei [12]): 10 mg/kg/day; ED50 (Plasmodium berghei [12]): 4 mg/kg/day; Time (Plasmodium falciparum [24]): 3 h; t1/2 (Liver [3]): 2.13 h; Activity (Plasmodium berghei [13]): 100%; CLH (Liver [6]): 5.4 µL/min
C[C@]12CC[C@H]3[C@@H](CCC4=CC(=O)CC[C@@]43C)[C@@H]1CC[C@@H]2O [TESTOSTERONE] | – | – | – | – | Kinetic_solubility [25]: 315 µM
